The values below come from patent US8980848B2, “Flavonoid dimers and their use” (The Hong Kong Polytechnic University, priority 2010, dated 2015).

In general, IC50 refers to the midpoint of a concentration-inhibition curve. The low end stands for greater potency in that assay, the high end for weaker potency in that assay. What is called EC50 is the concentration needed to bring the measured effect to its halfway point.

Molecules are shown by their SMILES.

Data set [1] in a line: Tumor cell line cytotoxicity of flavonoid dimers, LCC6MDR. It is filed as cell-based, human. Conditions: human, LCC6MDR cells, IC50 of compound alone. As to the method: (§1) (b) Tumor Cell Line Cytotoxicity. The tumor cytotoxicity assays of flavonoid dimers were performed against LCC6, LCC6MDR and L929 cell lines. […] In brief, LCC6, LCC6MDR and L929 cells were seeded into 96-well flat bottom microtiter plate at 1×10^4 cells per well in a final volume of 100 μL media, respectively. A graded dose of flavonoid dimers was added into wells. The plate was incubated at 37° C. for 72 hrs at the atmosphere 5% CO2 in the air. The % of survivors was determined.

The nature of data set [2]: Tumor cell line cytotoxicity of flavonoid dimers, LCC6. It counts as cell-based, human. Particulars: human, LCC6 cells, IC50 of compound alone. Here is the method: as §1
Data set [3] is described as follows: Cytotoxicity of flavonoid dimers, L929 mouse fibroblast. It is filed as cell-based. Conditions: mouse, L929 fibroblast cells, IC50 of compound alone, 72 hrs, mouse fibroblast. As to the method:
as §1

The next data set deals with Pgp (LCC6MDR cells) (Homo sapiens, UniProt P08183). Briefly: Cell proliferation assay: Pgp-modulating activity, reversal of anticancer drug resistance in LCC6MDR cells. Conditions: for RF (Relative Fold), cpd at 0.5 μM: RF = (IC50 without modulator)/(IC50 with 0.5 μM modulator); for RF (Relative Fold), cpd at 0.5 μM / RF (Relative Fold), cpd at 1 μM: paclitaxel; for RF (Relative Fold), cpd at 0.5 μM / RF (Relative Fold), cpd at 1 μM / EC50: LCC6MDR; for RF (Relative Fold), cpd at 1 μM: RF = (IC50 without modulator)/(IC50 with 1.0 μM modulator); for EC50: EC50 of compounds for reversing anticancer drug resistance (nM); for Therapeutic index: IC50 of compounds for L929/EC50 of compounds for lowering paclitaxel drug resistance.
Sequence of Pgp (LCC6MDR cells) (P08183 whole entry): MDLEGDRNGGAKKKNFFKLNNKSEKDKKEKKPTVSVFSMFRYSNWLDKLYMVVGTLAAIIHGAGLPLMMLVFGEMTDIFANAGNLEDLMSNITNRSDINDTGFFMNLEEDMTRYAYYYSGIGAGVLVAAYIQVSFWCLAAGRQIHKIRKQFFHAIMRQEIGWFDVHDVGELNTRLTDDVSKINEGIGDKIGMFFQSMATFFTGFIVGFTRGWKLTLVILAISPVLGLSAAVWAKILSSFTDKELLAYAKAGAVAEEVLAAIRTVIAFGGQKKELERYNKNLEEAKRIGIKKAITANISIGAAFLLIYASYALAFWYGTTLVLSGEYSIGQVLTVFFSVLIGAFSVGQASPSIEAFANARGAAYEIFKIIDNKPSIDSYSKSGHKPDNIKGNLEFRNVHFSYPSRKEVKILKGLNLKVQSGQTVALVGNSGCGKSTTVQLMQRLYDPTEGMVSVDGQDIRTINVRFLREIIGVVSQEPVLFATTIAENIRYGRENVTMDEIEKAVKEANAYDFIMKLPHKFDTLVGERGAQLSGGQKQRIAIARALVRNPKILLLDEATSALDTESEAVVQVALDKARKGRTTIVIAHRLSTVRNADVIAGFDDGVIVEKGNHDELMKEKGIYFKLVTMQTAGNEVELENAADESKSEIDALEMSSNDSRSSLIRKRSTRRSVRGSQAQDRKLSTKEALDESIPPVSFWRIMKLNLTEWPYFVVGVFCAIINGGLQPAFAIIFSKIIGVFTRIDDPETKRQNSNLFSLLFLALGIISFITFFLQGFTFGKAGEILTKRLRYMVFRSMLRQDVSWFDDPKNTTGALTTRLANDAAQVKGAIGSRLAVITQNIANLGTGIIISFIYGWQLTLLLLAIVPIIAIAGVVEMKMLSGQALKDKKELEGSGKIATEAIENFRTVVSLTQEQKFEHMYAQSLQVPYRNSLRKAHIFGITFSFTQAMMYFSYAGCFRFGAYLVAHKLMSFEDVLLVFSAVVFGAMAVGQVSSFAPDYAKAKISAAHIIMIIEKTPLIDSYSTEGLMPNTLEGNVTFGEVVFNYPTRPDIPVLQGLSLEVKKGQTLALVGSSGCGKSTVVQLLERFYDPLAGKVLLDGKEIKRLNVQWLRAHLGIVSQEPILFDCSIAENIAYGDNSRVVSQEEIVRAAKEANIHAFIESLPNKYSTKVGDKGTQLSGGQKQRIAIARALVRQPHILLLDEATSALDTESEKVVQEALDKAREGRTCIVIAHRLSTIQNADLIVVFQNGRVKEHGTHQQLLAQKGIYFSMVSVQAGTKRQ

Method for Pgp (LCC6MDR cells): Cell Proliferation Assay. 6,000 cells of LCC6 or LCC6MDR and anticancer drugs (paclitaxel, vinblastine, vincristine, doxorubicin and mitoxantrone) were mixed with or without modulators to a final volume of 200 μL in each well of 96-well plates. […] The plates were then incubated for 5 days at 37° C. […] IC50 values were calculated from the dose-response curves of MTS assays (Prism 4.0).

Turning to `N#Cc1cc(CN(CCOCCOc2ccc(-c3cc(=O)c4ccccc4o3)cc2)CCOCCOc2ccc(-c3cc(=O)c4ccccc4o3)cc2)ccn1` [Compound 64c, 1,13-Bis[4′-(4H-chromen-4-on-2-yl)phenyl]-7-(4-(2-cyanopyridyl)methyl)-1,4,10,13-tetraoxa-7-azamidecane], the IC50 at 72 h in data set [1] is greater than 100 µM; in data set [2] it was greater than 100 µM; in data set [3], greater than 50 µM. In addition, the “RF (Relative Fold), cpd at 0.5 μM” value at Pgp (LCC6MDR cells) is listed as “(19.4)”. For the same compound, the “RF (Relative Fold), cpd at 1 μM” value on Pgp (LCC6MDR cells) was “(66.6)”.

Regarding `COc1cc(-c2cc(=O)c3ccccc3o2)ccc1OCCOCCN(CCOCCOc1ccc(-c2cc(=O)c3ccccc3o2)cc1OC)C(=O)OC(C)(C)C` [Compound 16b, 1,13-Bis[4′-((4H-chromen-4-on-2-yl)-3′-methoxyphenyl)]-7-(tert-butylformyl)-1,4,10,13-tetraoxa-7-azamidecane], the figures for the IC50 at 72 h in data set [1], in data set [2] and in data set [3] were 6.9 ± 2.9 µM, 8.3 ± 1.4 µM and 33.3 µM, respectively. Further, the “RF (Relative Fold), cpd at 0.5 μM” value at Pgp (LCC6MDR cells) is on record as “(8.7)”.

As for `COc1cc(CN(CCOCCOc2ccc(-c3cc(=O)c4ccccc4o3)cc2)CCOCCOc2ccc(-c3cc(=O)c4ccccc4o3)cc2)cc(OC)c1` [Compound 44, 1,13-Bis[4′-(4H-chromen-4-on-2-yl)phenyl]-7-(3,5-dimethoxybenzyl)-1,4,10,13-tetraoxa-7-azamidecane], the IC50 at 72 h in data set [1], in data set [2] and in data set [3] was greater than 100 µM in each case. The “RF (Relative Fold), cpd at 0.5 μM” value on Pgp (LCC6MDR cells) is on record as “(19.1)”. For the same compound, at Pgp (LCC6MDR cells), the “RF (Relative Fold), cpd at 1 μM” value is given as “(51.0)”.

Regarding `COc1cccc(CN(CCOCCOc2ccc(-c3cc(=O)c4ccccc4o3)cc2)CCOCCOc2ccc(-c3cc(=O)c4ccccc4o3)cc2)c1` [Compound 43, 1,13-Bis[4′-(4H-chromen-4-on-2-yl)phenyl]-7-(3-methoxybenzyl)-1,4,10,13-tetraoxa-7-azamidecane], the 50% inhibitory concentration (IC50) at 72 h in data set [1], in data set [2] and in data set [3] was greater than 100 µM throughout. Also, on Pgp (LCC6MDR cells), the “RF (Relative Fold), cpd at 0.5 μM” value is recorded as “(22.5)”. Moreover, the “RF (Relative Fold), cpd at 1 μM” value on Pgp (LCC6MDR cells) is given as “(95.7)”.

Consider `Cc1ccc2oc(-c3ccc(OCCOCCNCCOCCOc4ccc(-c5cc(=O)c6cc(C)ccc6o5)cc4)cc3)cc(=O)c2c1` [Compound 12c, 1,13-Bis[4′-((6-methyl)-4H-chromen-4-on-2-yl)phenyl]-1,4,10,13-tetraoxa-7-azamidecane], for which the IC50 at 72 h in data set [1] is 7 ± 1.4 µM; in data set [2], 7.5 ± 0.9 µM; in data set [3], 6 ± 0.6 µM. Besides, the “RF (Relative Fold), cpd at 0.5 μM” value on Pgp (LCC6MDR cells) was “(13.9)”.

`O=c1c(OCc2ccccc2)c(-c2ccc(OCCOCCNCCOCCOc3ccc(-c4oc5ccccc5c(=O)c4OCc4ccccc4)cc3)cc2)oc2ccccc12` [Compound 12e, 1,13-Bis[4′-((3-benzyloxy)-4H-chromen-4-on-2-yl)phenyl]-1,4,10,13-tetraoxa-7-azamidecane]: the IC50 at 72 h is 4.4 ± 0.1 µM in data set [1], 4.3 ± 0.5 µM in data set [2] and 4.2 µM in data set [3]. Moreover, the “RF (Relative Fold), cpd at 0.5 μM” value on Pgp (LCC6MDR cells) is reported as “(54.7)”.

With `O=c1cc(-c2ccc(OCCOCCN(CCOCCOc3ccc(-c4cc(=O)c5ccccc5o4)cc3)Cc3ccncc3Br)cc2)oc2ccccc12` [Compound 64d, 1,13-Bis[4′-(4H-chromen-4-on-2-yl)phenyl]-7-(4-(3-bromopyridyl)methyl)-1,4,10,13-tetraoxa-7-azamidecane], the results for the IC50 at 72 h in data set [1], in data set [2] and in data set [3] were greater than 100 µM, greater than 100 µM and greater than 50 µM, respectively. Also, the “RF (Relative Fold), cpd at 0.5 μM” value on Pgp (LCC6MDR cells) is “(10.6)”. The “RF (Relative Fold), cpd at 1 μM” value at Pgp (LCC6MDR cells) is “(61.2)”.

On to `O=c1cc(-c2ccc(OCCOCCN(CCOCCOc3ccc(-c4cc(=O)c5ccccc5o4)cc3)Cc3ccc(O)cc3)cc2)oc2ccccc12` [Compound 42d, 1,13-Bis[4′-(4H-chromen-4-on-2-yl)phenyl]-7-(4-hydroxybenzyl)-1,4,10,13-tetraoxa-7-azamidecane], for which the IC50 at 72 h in data set [1] amounted to 5.3 ± 0.7 µM. The compound also yielded an IC50 at 72 h in data set [2] of 5.4 ± 0.6 µM. In data set [3], this compound returned a concentration for half-maximal inhibition (IC50) at 72 h of 4.8 ± 0.3 µM. Further, the EC50 at Pgp (LCC6MDR cells) (Paclitaxel) came to 141 ± 9 nM. Besides, on Pgp (LCC6MDR cells), the Therapeutic index is 34.0; the “RF (Relative Fold), cpd at 0.5 μM” value is “(117.8)”; the “RF (Relative Fold), cpd at 1 μM” value is “(117.8)”.

Regarding `O=c1cc(-c2ccc(OCCOCCN(CCOCCOc3ccc(-c4cc(=O)c5ccccc5o4)cc3)Cc3ccnc4ccccc34)cc2)oc2ccccc12` [Compound 64f, 1,13-Bis[4′-(4H-chromen-4-on-2-yl)phenyl]-7-(4-quinolinylmethyl)-1,4,10,13-tetraoxa-7-azamidecane], the half-maximal inhibitory concentration (IC50) at 72 h in data set [1], in data set [2] and in data set [3] was greater than 100 µM each time. The “RF (Relative Fold), cpd at 0.5 μM” value at Pgp (LCC6MDR cells) was “(15.9)”. In addition, the “RF (Relative Fold), cpd at 1 μM” value at Pgp (LCC6MDR cells) is “(69.6)”.

In data set [1], `O=c1cc(-c2ccc(OCCOCCN(CCOCCOc3ccc(-c4cc(=O)c5ccccc5o4)cc3)Cc3ccc(F)cc3F)cc2)oc2ccccc12` [Compound 40, 1,13-Bis[4′-(4H-chromen-4-on-2-yl)phenyl]-7-(2,4-difluorobenzyl)-1,4,10,13-tetraoxa-7-azamidecane] came in with a concentration for half-maximal inhibition (IC50) at 72 h greater than 100 µM. Besides, the IC50 at 72 h in data set [2] was greater than 100 µM. For the same compound, the IC50 at 72 h in data set [3] is greater than 100 µM. Moreover, at Pgp (LCC6MDR cells) (Paclitaxel), the EC50 is 246 ± 66 nM. Besides, at Pgp (LCC6MDR cells), the Therapeutic index is greater than 406.5; the “RF (Relative Fold), cpd at 0.5 μM” value is “(32.6)”; the “RF (Relative Fold), cpd at 1 μM” value was “(117.8)”.

In data set [1], `O=c1cc(-c2ccc(OCCOCCN(CCOCCOc3ccc(-c4cc(=O)c5ccccc5o4)cc3)CC3CCCCC3)cc2)oc2ccccc12` [Compound 62, 1,13-Bis[4′-(4H-chromen-4-on-2-yl)phenyl]-7-(cyclohexanylmethyl)-1,4,10,13-tetraoxa-7-azamidecane] gave an IC50 at 72 h of 7.9 ± 2.7 µM. The same compound had an IC50 at 72 h in data set [2] of 10 ± 4.7 µM. This compound also registered an IC50 at 72 h in data set [3] of 18.9 ± 2.3 µM. For the same compound, the concentration giving a half-maximal response (EC50) on Pgp (LCC6MDR cells) (Paclitaxel) is 132 ± 7 nM. Moreover, at Pgp (LCC6MDR cells), the Therapeutic index was 143.2; the “RF (Relative Fold), cpd at 0.5 μM” value is recorded as “(56.7)”; the “RF (Relative Fold), cpd at 1 μM” value is recorded as “(117.8)”.

In the case of `COc1ccc(CN(CCOCCOc2ccc(-c3cc(=O)c4ccccc4o3)cc2)CCOCCOc2ccc(-c3cc(=O)c4ccccc4o3)cc2)cc1` [Compound 42a, 1,13-Bis[4′-(4H-chromen-4-on-2-yl)phenyl]-7-(4-methoxybenzyl)-1,4,10,13-tetraoxa-7-azamidecane], the IC50 at 72 h is greater than 100 µM in data set [1], greater than 91 µM in data set [2] and greater than 100 µM in data set [3]. Moreover, the EC50 on Pgp (LCC6MDR cells) (Daunorubicin) was determined as 61 ± 6 nM; on Pgp (LCC6MDR cells) (Doxorubicin) it was 63 ± 8 nM; at Pgp (LCC6MDR cells) (Mitoxantrone), 96 ± 27 nM; on Pgp (LCC6MDR cells) (Paclitaxel), 104 ± 7 nM; at Pgp (LCC6MDR cells) (Vinblasinte, vinblastine), 94 ± 13 nM; at Pgp (LCC6MDR cells) (Vincristine) it was 98 ± 5 nM. Moreover, on Pgp (LCC6MDR cells), the Therapeutic index is greater than 961.5. The “RF (Relative Fold), cpd at 0.5 μM” value on Pgp (LCC6MDR cells) is listed as “(61.2)”. For the same compound, the “RF (Relative Fold), cpd at 1 μM” value on Pgp (LCC6MDR cells) is listed as “(117.8)”.

On to `O=c1cc(-c2ccc(OCCOCCN(CCOCCOc3ccc(-c4cc(=O)c5ccccc5o4)cc3)c3ccccc3)cc2)oc2ccccc12` [Compound 64h, 1,13-Bis[4′-(4H-chromen-4-on-2-yl)phenyl]-7-(phenyl)-1,4,10,13-tetraoxa-7-azamidecane], for which the IC50 at 72 h in data set [1], in data set [2] and in data set [3] was greater than 100 µM in each case. The “RF (Relative Fold), cpd at 0.5 μM” value at Pgp (LCC6MDR cells) is given as “(11.6)”. Further, the “RF (Relative Fold), cpd at 1 μM” value at Pgp (LCC6MDR cells) was “(72.9)”.

For `O=c1cc(-c2ccc(OCCOCCN(CCOCCOc3ccc(-c4cc(=O)c5ccccc5o4)cc3)Cc3ccccc3Cl)cc2)oc2ccccc12` [Compound 50, 1,13-Bis[4′-(4H-chromen-4-on-2-yl)phenyl]-7-(2-chlorobenzyl)-1,4,10,13-tetraoxa-7-azamidecane], the IC50 at 72 h in data set [1], in data set [2] and in data set [3] was greater than 100 µM throughout. Further, the “RF (Relative Fold), cpd at 0.5 μM” value at Pgp (LCC6MDR cells) is listed as “(11.9)”. At Pgp (LCC6MDR cells), the “RF (Relative Fold), cpd at 1 μM” value is recorded as “(95.7)”.

Consider `N#Cc1ccc(CN(CCOCCOc2ccc(-c3cc(=O)c4ccccc4o3)cc2)CCOCCOc2ccc(-c3cc(=O)c4ccccc4o3)cc2)cc1` [Compound 51, 1,13-Bis[4′-(4H-chromen-4-on-2-yl)phenyl]-7-(4-cyanobenzyl)-1,4,10,13-tetraoxa-7-azamidecane], for which the IC50 at 72 h in data set [1] was greater than 100 µM; in data set [2] it was greater than 100 µM; in data set [3], 25.2 ± 12.4 µM. On Pgp (LCC6MDR cells), the “RF (Relative Fold), cpd at 0.5 μM” value is “(2.6)”. The “RF (Relative Fold), cpd at 1 μM” value at Pgp (LCC6MDR cells) is reported as “(5.9)”.

In turn, `CC(=O)Oc1ccc(CN(CCOCCOc2ccc(-c3cc(=O)c4ccccc4o3)cc2)CCOCCOc2ccc(-c3cc(=O)c4ccccc4o3)cc2)cc1` [Compound 42c, 1,13-Bis[4′-(4H-chromen-4-on-2-yl)phenyl]-7-(4-acetyloxybenzyl)-1,4,10,13-tetraoxa-7-azamidecane] displayed an IC50 at 72 h in data set [1] of 5.9 ± 0.7 µM. The compound also had an IC50 at 72 h in data set [2] of 6.6 ± 1 µM. Further, the IC50 at 72 h in data set [3] stood at 4.5 ± 0.1 µM. In addition, the EC50 on Pgp (LCC6MDR cells) (Paclitaxel) was found to be 140 ± 12 nM. On Pgp (LCC6MDR cells), the Therapeutic index is 32.1; the “RF (Relative Fold), cpd at 0.5 μM” value is “(95.7)”; the “RF (Relative Fold), cpd at 1 μM” value is listed as “(117.8)”.
